Results published in US5811073A, “Method for radioisotopic detection and localization of inflammation in a host” (President and Fellows of Harvard College, priority 1995, dated 1998).

Assays:
[1] = intravenous; adult man; ^123 I-iodine thyroid blocked; cited from earlier work
[2] = system: bacterial (E. coli) inflammatory lesions (pus capsule); experiment: Gamma camera imaging of rats with bacterial infection; format: in vivo; design: key to Figure of Merit (FOM), equation (1): FOM=(At-Ab)^2/(At+Ab), from total counts target vs background; settings: i.v.; for Figure of Merit (FOM), equation (1): 0.2 mCi ^67 Ga-citrate (n=3); for Figure of Merit (FOM), equation (1) / Pus Capsule to Contralateral Tissue (T/B) Ratio, gamma camera imaging: 1.5 mCi/rat ^123 IUdR (n=4); for Figure of Merit (FOM), equation (1) / Pus Capsule to Contralateral Tissue (T/B) Ratio, gamma camera imaging / Figure of Merit (FOM), equation (2): mean ± SD; for Pus Capsule to Contralateral Tissue (T/B) Ratio, gamma camera imaging: 0.2 mCi/rat ^67 Ga (n=3); for Figure of Merit (FOM), equation (2): n=3 (^67 Ga), n=4 (^123 IUdR)
Description: A frozen sample of E. coli bacteria (clinical isolate; ATCC 9339) was used to inoculate a 10 ml trypticase soy medium (trypticase soy broth, BBL #11768, 30 g/L water), and the tube was incubated overnight at […] This culture was used to grow single colonies by streaking the sample on agar plates (100 mm petri dishes each containing 15 ml of […] in the same medium). Good colonies develop in 10-11 hours at 37° C. The agar plates containing bacterial colonies were stored upside down at 4° C. A single colony of bacteria from the agar plate was used to inoculate 10 ml trypticase soy medium, and the tube was incubated overnight at 37° C. with vigorous shaking. Two ml of this overnight culture was transferred into 100 ml trypticase soy medium and the sample incubated at 37° C. with vigorous shaking until the culture reached an OD600 of ~0.8 (in about 2 hrs). This 100 ml culture contained ~6.4×10^10 bacterial cells (1 OD600 =8×10^8 cells/ml).
The culture was centrifuged at 5500 rpm for 5 min at 4° C. in a Sorvall SS-34 rotor, the bacterial pellet resuspended in saline to give ~2.5×10^9 bacteria/ml, and 0.1 ml of resuspended cells injected into the left thigh muscle of each anesthetized rat.
(§1) A further set of rats prepared as described in Examples 1 and 2 received intravenous injections of either ^123 IUdR (at a dose of about 1.5 mCi/rat) or gallium-67 citrate (at a dose of about 0.2 mCi/rat). After 1, 3 and 24 hours, rats from each group were anesthetized and imaged using a gamma camera (the General Electric STARCAM™ 400 fitted with parallel hole medium collimator). Anterior images were obtained 10^6 counts/frame except for the 24 h period for ^123 IUdR where a 15 min scan was carried out. A 20% window was present over the 159 keV photopeaks of ^67 Ga (93 kev, 184 keV, and 298 keV).
(§2) Regions of interest (ROI) were drawn over the inflamed areas (3×4 pixel) and over the contralateral area in each rat. Total counts in these regions were used to calculate Target to Background (T/B) ratios and to calculate Figure of Merit (FOM; statistical significance) values using either of the following equations:
(§3) FOM=(At -Ab)^2 /(At +Ab) (1)
(§4) At =counts in ROI (3×4) over pus capsule; and
(§5) Ab =counts in ROI (3×4) over contralateral muscle.
(§6) Equation (1) is derived from the Report of the National Council on Radiation Protection and Measurements, Nuclear Medicine, "Factors Influencing the Choice and Use of Radionuclides in Diagnosis and Therapy", Report No. 70, p.79 (NRCP, Bethesda, Md., 1982). Equation (2) is derived from Rubin et al., J. Nucl. Med. 30:385-389, 1989. For purposes of reference, the disclosures of each of these publications is incorporated herein.

[3] = system: sterile and bacterial inflammation; settings: i.v., 200-300 μCi gallium-67 citrate, 300-500 μCi ^99m Tc-human serum albumin, 100-150 μCi ^111 In-IgG or ^125 I-IgG; cited from earlier work
[4] = system: sterile inflammatory lesions (pus capsule; turpentine oil); experiment: Gamma camera imaging of rats with sterile inflammation; format: in vivo, Male Sprague-Dawley rats; settings: for Figure of Merit (FOM), equation (1): 0.2 mCi ^67 Ga-citrate; for Figure of Merit (FOM), equation (1) / Pus Capsule to Contralateral Tissue (T/B) Ratio, gamma camera imaging: 1.5 mCi/rat ^123 IUdR; for Figure of Merit (FOM), equation (1) / Pus Capsule to Contralateral Tissue (T/B) Ratio, gamma camera imaging / Figure of Merit (FOM), equation (2): n=4, mean ± SD; for Pus Capsule to Contralateral Tissue (T/B) Ratio, gamma camera imaging: 0.2 mCi/rat ^67 Ga
Description: Male Sprague-Dawley rats weighing between 150-200g were obtained from the Charles River Breeding Laboratories in Burlington, Mass. […] To anaesthetize the animals during testing, ketamine (40 mg/kg) and xylazine (10 mg/kg) were administered intra peritoneally (1.0 ml/kg) prior to surgical procedures. For the imaging studies, each animal received 1.5 ml/kg of a mixture of ketamine (75 mg/kg), xylazine (39 mg/kg) and acepromazine (0.75 mg/kg).
To induce a localized sterile inflammation, 0.1 ml of turpentine oil (Rectified Turpentine Oil for medical use, Gentry Corporation, Fair Lawn, N.J.) was injected into the left thigh muscle of anesthetized rats.
as §1, §2, §3, §4, §5, §6

SMILES: O=C([O-])CC(O)(CC(=O)[O-])C(=O)[O-].[67Ga+3] [^67 Ga, gallium-67 citrate]
- whole body effective dose [1]: 0.44 rad/mCi
- detection of the lesion in scintigraphic images (in words) ([2]; 1, 3, and 24 h): can clearly detect the lesion
- Figure of Merit (FOM), equation (1) ([2]; 1 h): 49 ± 60
- Pus Capsule to Contralateral Tissue (T/B) Ratio, gamma camera imaging ([2]; 1 h): 1.26 ± 0.09
- Figure of Merit (FOM), equation (2) ([2]; 1 h): 0.26 ± 0.11
- Figure of Merit (FOM), equation (1) ([2]; 3 h): 306 ± 210
- Pus Capsule to Contralateral Tissue (T/B) Ratio, gamma camera imaging ([2]; 3 h): 2.01 ± 0.24
- Figure of Merit (FOM), equation (2) ([2]; 3 h): 1.01 ± 0.29
- Figure of Merit (FOM), equation (1) ([2]; 24 h): 231 ± 135
- Pus Capsule to Contralateral Tissue (T/B) Ratio, gamma camera imaging ([2]; 24 h): 1.91 ± 0.15
- Figure of Merit (FOM), equation (2) ([2]; 24 h): 0.90 ± 0.21
- time of maximum target to background tissue ratio for image intensity [3]: 3 h
- detection of the lesion in scintigraphic images (in words) ([4]; 1, 3, and 24 h, i.v.): can clearly detect the lesion
- Figure of Merit (FOM), equation (1) ([4]; 1 h, i.v.): 1037 ± 215
- Pus Capsule to Contralateral Tissue (T/B) Ratio, gamma camera imaging ([4]; 1 h, i.v.): 2.76 ± 0.18
- Figure of Merit (FOM), equation (2) ([4]; 1 h, i.v.): 1.75 ± 0.2
- Figure of Merit (FOM), equation (1) ([4]; 3 h, i.v.): 1581 ± 143
- Pus Capsule to Contralateral Tissue (T/B) Ratio, gamma camera imaging ([4]; 3 h, i.v.): 3.61 ± 0.15
- Figure of Merit (FOM), equation (2) ([4]; 3 h, i.v.): 2.61 ± 0.18
- efficacy by imaging T/B ratio, comparison of agents (in words) ([4]; 3 hrs): equal
- Figure of Merit (FOM), equation (1) ([4]; 24 h, i.v.): 1958 ± 149
- Pus Capsule to Contralateral Tissue (T/B) Ratio, gamma camera imaging ([4]; 24 h, i.v.): 5.09 ± 0.44
- Figure of Merit (FOM), equation (2) ([4]; 24 h, i.v.): 4.09 ± 0.50
- imaging T/B ratios, comparison of agents (in words) ([4]; by 24 hrs): higher T/B ratios
- FOM values, comparison of agents (in words) ([4]; later time points (3 hrs and 24 hrs)): equal or higher FOM values
